Measured values published in patent publication US20160095802A1, “COMBINATION OF PETROSELINIC ACID AND ZINC FOR ORAL ADMINISTRATION FOR HAIR AGING CONTROL” (NUTRICOS TECHNOLOGIES, priority 2013, published 2016).

System: Lipoxin A4 production in human mononuclear cells
Assay: Lipoxin A4 production in stimulated human mononuclear blood cells in vitro (LC-MS of supernatants)
Assay type: cell-based
Conditions: coriander oil 0.25 mg/ml, zinc gluconate 0.005 mg/ml; 30 min pre-incubation, then 2 hours stimulation with phorbol myristate 0.05 μM + calcium ionophore 1 μM + DHA/EPA 1 μg/mL each; triplicates
Experimental: Mononuclear blood cells are cultured under 5% CO2 and at 37° C. in a serum-free medium for macrophages (SFM Macrophage; Invitrogen 12065074) for 24 hours. After this step, the medium is replaced with the same fresh test medium also containing the active agents at the various doses for 30 minutes in the presence of the various products to be evaluated (coriander oil 0.25 mg/ml, zinc gluconate ([…]. The inflammatory response was then triggered in the presence of phorbol myristate (0.05 μM) and calcium ionophore (1 μM) and a lipid substrate mixture composed of docosahexaenoic acid (DHA—1 μg/mL) and eicosapentaenoic acid (EPA—1 μg/mL).
The supernatants were then collected after 2 hours of stimulation and frozen at −80° C. before preparation for analysis by mass spectrometry.
Experimental triplicates (three wells) were prepared per experimental condition. Into each culture plate was placed a control corresponding to cells stimulated with the PMA/A23187 mixture and/or with addition of the equimolar mixture of fatty acids.
The thawed supernatants were concentrated by solid-phase extraction (SPE) and taken up in methanol before spectrometric analysis. The analytical method used consists in separating the various analytes by high-pressure liquid chromatography as a function of their retention time and in quantifying them by mass spectrometry. […]

Substance: Zinc gluconate
- Level of lipoxin A4 production (% modulation relative to the control): −5%
